Legend:
[1] = system: TGFβ/SMAD Signaling Pathway SBE reporter cell line; test: TGFβ reporter assay, in vitro small molecule screening (luciferase); type: cell-based; settings: TGFβ stimulation, luminescence
How it was run: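 SBE luciferase reporter cells (~0.5×10^6 cells/mL) preincubated with compound 5-6 h at 37 °C in 0.5% FBS MEM, then stimulated with TGFβ (12 ng/mL stock) for 18 h. Luminescence read after luciferase substrate; EC50 from curve fits.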

TGFBR2 = target: T1, TGFBR2 (Homo sapiens, UniProt P37173); test: TGFBR2 RBC assay (enzyme inhibition assay, Reaction Biology Corp.); type: biochemical
T1 construct: purchased Reaction Biology Corp
T1 sequence (P37173 23-567): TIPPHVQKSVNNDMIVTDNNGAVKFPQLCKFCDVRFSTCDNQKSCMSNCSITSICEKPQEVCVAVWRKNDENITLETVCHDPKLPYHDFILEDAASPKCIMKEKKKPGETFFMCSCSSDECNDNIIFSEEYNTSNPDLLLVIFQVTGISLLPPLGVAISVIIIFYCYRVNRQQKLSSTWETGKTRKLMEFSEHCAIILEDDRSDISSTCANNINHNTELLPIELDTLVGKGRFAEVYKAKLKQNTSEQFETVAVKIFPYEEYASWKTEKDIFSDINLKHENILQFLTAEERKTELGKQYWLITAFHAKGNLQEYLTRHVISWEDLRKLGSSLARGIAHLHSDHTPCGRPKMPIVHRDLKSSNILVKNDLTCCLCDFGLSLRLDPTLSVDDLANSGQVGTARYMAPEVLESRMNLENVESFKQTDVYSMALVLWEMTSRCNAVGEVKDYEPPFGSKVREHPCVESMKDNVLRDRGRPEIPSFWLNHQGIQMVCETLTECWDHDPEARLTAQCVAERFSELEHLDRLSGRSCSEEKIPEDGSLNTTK
Description: Compounds of the disclosure were also assayed by Reaction Biology Corp. using the TGFBR2 RBC assay (enzyme inhibition assay). […] NT refers to not tested.

Compound | EC50 [1] [nM] | IC50 (TGFBR2) [nM]
NCCc1ccc(-c2cnc(N)c(C(=O)Nc3c(N4CCOCC4)ccnc3N)n2)cc1 [Compound 131] | > 1000 | > 1000
NCCc1ccc(-c2cnc(N)c(C(=O)Nc3cnccc3-c3ccccn3)n2)cc1 [Compound 132] | 100 to 1000 | < 50
Nc1ncc(-c2ccc(CCNC(=O)OCc3ccccc3)cc2)nc1C(=O)Nc1cnccc1-c1ccccn1 [Compound 133] | > 1000 | < 50
NCCc1ccc(-c2cnc(N)c(C(=O)Nc3cnccc3-n3ccnc3)n2)cc1 [Compound 136] | > 1000 | < 50
NCCc1ccc(-c2cnc(N)c(C(=O)Nc3cncc(Cl)c3N3CCOCC3)n2)cc1 [Compound 139] | 100 to 1000 | < 50
CCc1nccn1-c1ccncc1NC(=O)c1nc(-c2ccc(CCN)cc2)cnc1N [Compound 140] | > 1000 | < 50
CCc1nccn1-c1ccncc1NC(=O)c1nc(-c2ccc(CCNC(=O)OCc3ccccc3)cc2)cnc1N [Compound 141] | > 1000 | < 50
Nc1ncc(-c2ccc(CCNC(=O)OCc3ccccc3)cc2)nc1C(=O)Nc1cncc(-c2ccccc2[N+](=O)[O-])c1 [Compound 144] | > 1000 | < 50
NCCc1ccc(-c2cnc(N)c(C(=O)Nc3cncc(-c4ccccc4N)c3)n2)cc1 [Compound 148] | > 1000 | 100 to 1000
NCCc1ccc(-c2cnc(N)c(C(=O)Nc3cncc(-c4cccc(N)c4)c3)n2)cc1 [Compound 149] | > 1000 | 50 to 100
COc1ccccc1-c1cnc(N)c(C(=O)Nc2cnccc2N2CCOCC2)n1 [Compound 150] | > 1000 | 100 to 1000
Nc1ncc(-c2ccccc2Cl)nc1C(=O)Nc1cnccc1N1CCOCC1 [Compound 151] | 100 to 1000 | 50 to 100
Nc1ncc(-c2ccc(Cl)cc2Cl)nc1C(=O)Nc1cnccc1N1CCOCC1 [Compound 153] | > 1000 | 100 to 1000
COc1cccc(-c2cnc(N)c(C(=O)Nc3cnccc3N3CCOCC3)n2)c1 [Compound 155] | 100 to 1000 | < 50
COc1ccc(-c2cnc(N)c(C(=O)Nc3cnccc3N3CCOCC3)n2)cc1 [Compound 156] | 100 to 1000 | < 50
COc1ccc(-c2cnc(N)c(C(=O)Nc3cnccc3N3CCOCC3)n2)c(OC)c1 [Compound 157] | 100 to 1000 | 100 to 1000
Nc1ncc(-c2ccc(O[C@@H]3CCN(C(=O)OCc4ccccc4)C3)cc2)nc1C(=O)Nc1cnccc1N1CCOCC1 [Compound 162] | 100 to 1000 | < 50
Nc1ncc(-c2ccc(O[C@@H]3CCCN(C(=O)OCc4ccccc4)C3)cc2)nc1C(=O)Nc1cnccc1N1CCOCC1 [Compound 163] | 100 to 1000 | 100 to 1000
Nc1ncc(-c2ccc(O[C@H]3CCN(C(=O)OCc4ccccc4)C3)cc2)nc1C(=O)Nc1cnccc1N1CCOCC1 [Compound 164] | 100 to 1000 | 50 to 100

Compound | EC50 [1] [nM] | IC50 (TGFBR2) [nM]
Nc1ncc(-c2ccc(O[C@H]3CCCN(C(=O)OCc4ccccc4)C3)cc2)nc1C(=O)Nc1cnccc1N1CCOCC1 [Compound 165] | 100 to 1000 | 100 to 1000
Nc1ncc(-c2ccc(OC3CCN(C(=O)OCc4ccccc4)CC3)cc2)nc1C(=O)Nc1cnccc1N1CCOCC1 [Compound 166] | 100 to 1000 | 100 to 1000
Nc1ncc(-c2ccc(OC3CCNCC3)cc2)nc1C(=O)Nc1cnccc1N1CCOCC1 [Compound 167] | 50 to 100 | < 50
Nc1ncc(-c2ccc(O[C@@H]3CCCNC3)cc2)nc1C(=O)Nc1cnccc1N1CCOCC1 [Compound 168] | 50 to 100 | < 50
Nc1ncc(-c2ccc(O[C@H]3CCCNC3)cc2)nc1C(=O)Nc1cnccc1N1CCOCC1 [Compound 169] | 50 to 100 | < 50
COc1cccc(OC)c1-c1cnc(N)c(C(=O)Nc2cnccc2N2CCOCC2)n1 [Compound 172] | > 1000 | > 1000
Nc1ncc(-c2c(Cl)cccc2Cl)nc1C(=O)Nc1cnccc1N1CCOCC1 [Compound 173] | 100 to 1000 | > 1000
Nc1ncc(-c2ccc3c(c2)CCCO3)nc1C(=O)Nc1cnccc1N1CCOCC1 [Compound 174] | 100 to 1000 | < 50
NCc1cccc(-c2cnc(N)c(C(=O)Nc3cnccc3N3CCOCC3)n2)c1 [Compound 175] | 100 to 1000 | 100 to 1000
Nc1ncc(-c2cccc(CNC(=O)OCc3ccccc3)c2)nc1C(=O)Nc1cnccc1N1CCOCC1 [Compound 176] | 100 to 1000 | < 50
Nc1ncc(-c2cccc3c2CCC3)nc1C(=O)Nc1cnccc1N1CCOCC1 [Compound 179] | > 1000 | 50 to 100
Nc1ncc(-c2ccccc2)nc1C(=O)Nc1cnccc1N1CCOCC1 [Compound 180] | 100 to 1000 | 50 to 100
NCCCc1cccc(-c2cnc(N)c(C(=O)Nc3cnccc3N3CCOCC3)n2)c1 [Compound 182] | 100 to 1000 | < 50
CC(C)(C)OC(=O)NCCOc1cccc(-c2cnc(N)c(C(=O)Nc3cnccc3N3CCOCC3)n2)c1 [Compound 183] | 100 to 1000 | < 50
Nc1ncc(-c2ccc3c(c2)CCC3)nc1C(=O)Nc1cnccc1N1CCOCC1 [Compound 185] | 100 to 1000 | < 50
CC(COc1cccc(-c2cnc(N)c(C(=O)Nc3cnccc3N3CCOCC3)n2)c1)NC(=O)OC(C)(C)C (stereo not drawn) [Compound 189] | > 1000 | < 50
CC(CNC(=O)OC(C)(C)C)Oc1cccc(-c2cnc(N)c(C(=O)Nc3cnccc3N3CCOCC3)n2)c1 (stereo not drawn) [Compound 191] | > 1000 | < 50
COC(=O)[C@@H](Cc1ccc(-c2cnc(N)c(C(=O)Nc3cnccc3N3CCOCC3)n2)cc1)NC(=O)OC(C)(C)C [Compound 192] | 100 to 1000 | < 50

Results, then the compound that gave them:

EC50 [1] [nM] | IC50 (TGFBR2) [nM] | Compound
> 1000 | 100 to 1000 | NCCc1ccc(-c2cnc(N)c(C(=O)Nc3cnccc3N3CCOCC3)n2)cn1 [Compound 125]
100 to 1000 | > 1000 | Nc1ncc(-c2ccc(CCNC(=O)OCc3ccccc3)cc2)nc1C(=O)Nc1cnc2ccccc2c1N1CCOCC1 [Compound 126]
100 to 1000 | < 50 | NCCc1ccc(-c2cnc(N)c(C(=O)Nc3cnccc3-c3cccnc3)n2)cc1 [Compound 127]
100 to 1000 | < 50 | Nc1ncc(-c2ccc(CCNC(=O)OCc3ccccc3)cc2)nc1C(=O)Nc1cnccc1-c1cccnc1 [Compound 128]
100 to 1000 | 50 to 100 | NCCc1ccc(-c2cnc(N)c(C(=O)Nc3cnccc3-c3ccncc3)n2)cc1 [Compound 129]
> 1000 | > 1000 | NCCc1ccc(-c2cnc(N)c(C(=O)Nc3cnc4ccccc4c3N3CCOCC3)n2)cc1 [Compound 130]
100 to 1000 | < 50 | NCCc1ccc(-c2cnc(N)c(C(=O)Nc3cnc4[nH]ccc4c3N3CCOCC3)n2)cc1 [Compound 134]
> 1000 | > 1000 | NCCc1ccc(-c2cnc(N)c(C(=O)Nc3cnc(N)cc3N3CCOCC3)n2)cc1 [Compound 135]
> 1000 | < 50 | Nc1ncc(-c2ccc(CCNC(=O)OCc3ccccc3)cc2)nc1C(=O)Nc1cnccc1-n1ccnc1 [Compound 137]
> 1000 | < 50 | Cc1nccn1-c1ccncc1NC(=O)c1nc(-c2ccc(CCN)cc2)cnc1N [Compound 138]
100 to 1000 | < 50 | CC(C)c1nccn1-c1ccncc1NC(=O)c1nc(-c2ccc(CCN)cc2)cnc1N [Compound 142]
> 1000 | < 50 | CC(C)c1nccn1-c1ccncc1NC(=O)c1nc(-c2ccc(CCNC(=O)OCc3ccccc3)cc2)cnc1N [Compound 143]
100 to 1000 | < 50 | Nc1ncc(-c2cccc(Cl)c2)nc1C(=O)Nc1cnccc1N1CCOCC1 [Compound 152]
> 1000 | 100 to 1000 | Nc1ncc(-c2ccc(Cl)c(Cl)c2)nc1C(=O)Nc1cnccc1N1CCOCC1 [Compound 154]
100 to 1000 | < 50 | COc1ccc(-c2cnc(N)c(C(=O)Nc3cnccc3N3CCOCC3)n2)cc1OC [Compound 158]
100 to 1000 | 100 to 1000 | COc1ccc(OC)c(-c2cnc(N)c(C(=O)Nc3cnccc3N3CCOCC3)n2)c1 [Compound 159]
100 to 1000 | < 50 | Nc1ncc(-c2ccc(Cl)cc2)nc1C(=O)Nc1cnccc1N1CCOCC1 [Compound 160]
100 to 1000 | 100 to 1000 | Nc1ncc(-c2cc(Cl)ccc2Cl)nc1C(=O)Nc1cnccc1N1CCOCC1 [Compound 161]
100 to 1000 | 50 to 100 | Nc1ncc(-c2cccc(CCNC(=O)OCc3ccccc3)c2)nc1C(=O)Nc1cnccc1N1CCOCC1 [Compound 177]
100 to 1000 | < 50 | Nc1ncc(-c2cccc(CCCNC(=O)OCc3ccccc3)c2)nc1C(=O)Nc1cnccc1N1CCOCC1 [Compound 178]
100 to 1000 | < 50 | NCCc1cccc(-c2cnc(N)c(C(=O)Nc3cnccc3N3CCOCC3)n2)c1 [Compound 181]
100 to 1000 | < 50 | NCCOc1cccc(-c2cnc(N)c(C(=O)Nc3cnccc3N3CCOCC3)n2)c1 [Compound 184]
> 1000 | > 1000 | Nc1ncc(Cc2ccccc2)nc1C(=O)Nc1cnccc1N1CCOCC1 [Compound 186]
100 to 1000 | < 50 | NCCc1ccc(-c2cnc(N)c(C(=O)Nc3cnccc3-n3cncn3)n2)cc1 [Compound 187]
> 1000 | < 50 | Nc1ncc(-c2ccc(CCNC(=O)OCc3ccccc3)cc2)nc1C(=O)Nc1cnccc1-n1cncn1 [Compound 188]
100 to 1000 | 50 to 100 | CC(CN)Oc1cccc(-c2cnc(N)c(C(=O)Nc3cnccc3N3CCOCC3)n2)c1 (stereo not drawn) [Compound 190]

Source: patent publication US20220362396A1, “AMINO-PYRAZINECARBOXAMIDE COMPOUNDS, CONJUGATES, AND USES THEREOF” (Silverback Therapeutics, Inc., priority 2018, published 2022)
